The values that follow come from patent US20050232860A1, “Use of edg-receptor agonists for the treatment of hypertension” (priority 2001, published 2005).

For assay [1], the system named is PC12 cells. Put plainly: Veratridine-evoked [^3H]noradrenaline release from PC12 cells. The class given is cell-based, rat. Particulars: for activity at 100 µM: PC-12, read-out: Veratridine (1 mM)-induced [^3H]noradrenaline release (% of controls without drug); for effect on veratridine-induced [^3H]noradrenaline release (concentration-response): in the presence of 3 μM rauwolscine; for effect on veratridine-evoked [^3H]noradrenaline release, given alone: CB1 antagonist given alone; for effect on veratridine-evoked [^3H]noradrenaline release (concentration-response): in the absence of rauwolscine / interacting drugs; for effect on evoked tritium overflow: 3 μM rauwolscine. As to the method: PC12 cells were cultured in suspension culture as described by Harder and Bönisch (1984). […] For the experiments on intact cells, PC12 cells were cultured in a humidified CO2-incubator (at 37° C. and in the presence of 9% CO2) on dishes (60 mm, Nunc) coated with polyornithine 0.1 g/l (in 0.15 M boric acid, and 67 mM NaOH, adjusted with HCl to pH 8.4). Each culture dish contained about 10^7 cells corresponding to about 1 mg cell protein.
To load the cells with labelled noradrenaline, 10 nM [^3H]noradrenaline was added to the culture medium (3 ml/dish) and the cells were incubated for 3 h in a CO2-incubator (37° C.). To minimize oxidation of the catecholamine, L(+)-ascorbic acid (1 mM) was present in all solutions. The cells were then washed twice with culture medium and incubated for 60 min with [^3H]noradrenaline-free culture medium (with a change of the medium after 30 min). Subsequently the cell dishes were transferred to a water bath of 37° C. (onset of the experiment) and the cells were then incubated until the end of the experiment with prewarmed (37° C.) [^3H]noradrenaline-free HEPES-buffered salt solution (composition in mM unless stated otherwise: NaCl 125, KCl 15, KH2PO4 1.2, CaCl2 2.6, MgSO4 1.2, HEPES-NaOH (pH 7.4) 25, D(+)-glucose 5.6, L(+)-ascorbic acid 1.0) with a change of the medium every 5 min (total incubation time in the HEPES buffer: 85 min). To minimize loss of cells during washing und to inhibit the neuronal noradrenaline transport system the solution contained 1 g/l bovine serum albumin and 1 μM desipramine, respectively (Friedrich and Bönisch, 1986). The agonist and/or antagonist under study was added to the HEPES buffer at the onset of the exposure to this buffer. Sixty min after onset of incubation with the buffer 1 mM veratridine was added for 5 min. In a few experiments, the HEPES-buffered salt solution contained 4.8 instead of 15 mM KCl and stimulation was carried out either by 1 mM veratridine or by increasing the KCl concentration to 15 mM (time schedule identical to the standard procedure). In one series of experiments, culture medium was changed daily (instead of changing it every 3 days as standard condition) and 100 μM clonidine was added to the medium for 72 h. The cells were then washed twice with clonidine-free culture medium (with a change of the medium after 30 min). Subsequently the cell dishes were transferred to a water bath of 37° C. (onset of the experiment) and the cells were then incubated until the end of the experiment with prewarmed (37° C.) [^3H]noradrenaline-free HEPES-buffered salt solution and veratridine was administered 2 h after the end of exposure to clonidine. Basal efflux of tritium was determined in the 5-min period before and in that 20 min after onset of stimulation. Veratridine-evoked tritium overflow was determined in the four 5-min periods after the onset of veratridine application. At the end of the experiment, the cells were solubilized by 0.1% v/v TritonX-100 (in 5 mM Tris-HCl, pH 7.4). The radioactivity of the solubilized cells und of the wash-out samples was determined by liquid scintillation counting.

Assay [2] deals with T1, h(edg2) receptor (Homo sapiens, UniProt Q92633).
T1 construct: expressed in transfected cells; host or cells: RH7777 cells (rat hepatoma cells), membranes
Nature of the assay: Agonist-induced [^35S]GTPγS binding to membranes from RH7777 cells stably transfected with h(edg2) receptors. The class given is biochemical. The settings on record: for effect on [^35S]GTPγS-binding: nanomolar concentrations, 10 μM rauwolscine, 0.1 μM GDP; for agonist character at the edg2-receptor: increase to the same extent as for the endogenous ligand LPA. Here is the method: RH7777 cells (rat hepatoma cells) stably transfected with cDNA encoding the h(edg2) receptor and PC12 cells were homogenized in ice-cold 20 mM HEPES buffer containing […] EDTA (pH 7.4 at RT) with an ultraturrax homgenizer and centrifuged at 48,000 g, 4° C. for 15 min. The pellet was resuspended in ice-cold 20 mM HEPES buffer containing 0.1 mM EDTA (pH 7.4 at RT) and recentrifuged at 48,000 g, 4° C. for 15 min. The final pellet was resuspended in 20 mM HEPES buffer (pH 7.4 at RT).
50 μg Membranes were incubated in 0.5 ml of GTP-binding buffer containing GDP 0.1 μM, rauwolscine 10 μM (in the experiments with membranes from RH7777 cells), [^35S]GTPγs 0.05 nM and indicated test compound (LPA, clonidine or moxonidine diluted in assay buffer containing 1% fatty acid free BSA) for 45 min at 30° C. The incubation was terminated by filtering over GF/B filters with a cell harvester, and the filters were washed once with 5 ml of ice-cold assay buffer. Radioactivity was counted by liquid scintillation spectrometry at an efficiency of >95%.
For orientation: GTPγS is a poorly hydrolysed GTP analogue; its binding reports G protein activation.

The mark [3] stands for this setting: drug 100 μM, 3 μM rauwolscine present.

Structures can show the parent of a compound that is named as a salt.

T1 sequence (Q92633 whole entry): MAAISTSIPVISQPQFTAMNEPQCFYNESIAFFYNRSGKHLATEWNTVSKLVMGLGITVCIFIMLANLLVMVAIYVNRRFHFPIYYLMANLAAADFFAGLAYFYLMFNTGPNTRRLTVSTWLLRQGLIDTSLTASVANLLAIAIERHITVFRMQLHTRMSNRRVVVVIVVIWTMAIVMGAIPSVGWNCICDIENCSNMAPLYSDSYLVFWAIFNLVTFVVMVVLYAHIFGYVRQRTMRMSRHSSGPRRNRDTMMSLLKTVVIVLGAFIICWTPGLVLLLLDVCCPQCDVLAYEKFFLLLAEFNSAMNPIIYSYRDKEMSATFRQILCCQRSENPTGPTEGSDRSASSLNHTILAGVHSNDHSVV

For `Cl.Clc1cccc2c1CN(NC1=NCCN1)C2` [BDF 6143, 4-chloro-2-(2-imidazolin-2-ylamino)-isoindoline hydrochloride], the activity at 100 µM in assay [1] (Rattus norvegicus) came out at 74.7 ± 11.1%. Moreover, the “effect on veratridine-induced [^3H]noradrenaline release at 100 μM (in words)” value (shortened to “effect on veratridine-induced … (in words)”) in assay [1] (setting [3]) is reported as “inhibited”. For the same molecule, the “effect on veratridine-induced [^3H]noradrenaline release (concentration-response)” value in assay [1] is reported as “concentration-dependently inhibited”.
Consider lysophospatidic acid [LPA], for which, in assay [2], the “effect on [^35S]GTPγS-binding” value is “provoke an increase”.
With `Cc1c(C(=O)NN2CCCCC2)nn(-c2ccc(Cl)cc2Cl)c1-c1ccc(Cl)cc1` [SR141716A, N-[piperidin-1-yl]-5-[4-chlorophenyl]-1-[2,4-dichlorophenyl]-4-methyl-1H-pyrazole-3-carboxamide], in assay [1] (1 μM SR141716A), the “interaction with the inhibition produced by 100 μM clonidine” value was “counteracted” and the “interaction with the inhibitory effect of 10 μM 1-oleoyl-LPA” value is reported as “counteracted”. For the same molecule, in assay [1] (1 μM SR141716A + 3 μM rauwolscine), the “interaction with the inhibitory effect of 0.3 μM CP55,940” value is listed as “antagonized”. The “effect on the concentration-response curve of clonidine” value in assay [1] (10 μM SR141716A) is “shifted to the right”. The “effect on veratridine-evoked [^3H]noradrenaline release, given alone” value in assay [1] was “did not affect”.
Take `Clc1cccc(Cl)c1N=C1NCCN1` [Clonidine, clonidine hydrochloride]: the “effect on [^3H]noradrenaline release” value in assay [1] (10 μM clonidine in the presence of 10 μM SR141716A) is on record as “acted facilitatory”. For the same molecule, the “evoked [^3H]noradrenaline release (% of veratridine-evoked release in the respective control experiments)” value in assay [1] (100 μM clonidine, cells pretreated with 100 μM clonidine for 72 h, n=6) is on record as 171±24%. Also, the activity at 100 µM in assay [1] (Rattus norvegicus) is 25.6 ± 12.2%. Besides, in assay [1] (setting [3]), the “effect on veratridine-induced … (in words)” value was “inhibited”. Further, in assay [1], the “effect on veratridine-evoked [^3H]noradrenaline release (concentration-response)” value is “concentration-dependently inhibited” and the “effect on veratridine-induced [^3H]noradrenaline release (concentration-response)” value was “concentration-dependently inhibited”. Further, in assay [2], the “agonist character at the edg2-receptor” value was “full agonists” and the “effect on [^35S]GTPγS-binding” value was “provoke an increase”.
`c1ccc(C2CC2)c(OCC2=NCCN2)c1` [Cirazoline, cirazoline hydrochloride]: the activity at 100 µM in assay [1] (Rattus norvegicus) turned out to be 17.4 ± 7.5%. Further, the “effect on veratridine-induced … (in words)” value in assay [1] (setting [3]) is reported as “inhibited”.
As for “[(−)-cis-3-[2-hydroxy-4-(1,1-dimethylheptyl)phenyl]-trans-4-(3-hydroxypropyl)-cyclohexane [CP55,940]”, the results for the “effect on evoked tritium overflow” value in assay [1] (0.3 μM CP55,940), in assay [1] (1 μM CP55,940) and in assay [1] (10 μM CP55,940) were “significantly inhibited”, “no inhibition” and “facilitation”, respectively.
For `N=C(N)NCCCCN.O=S(=O)(O)O` [Agmatine, agmatine sulfate], the activity at 100 µM in assay [1] (Rattus norvegicus) turned out to be 76.4 ± 9.5%. The “effect on veratridine-induced … (in words)” value in assay [1] (setting [3]) is “inhibited”. In addition, the “effect on veratridine-induced [^3H]noradrenaline release (concentration-response)” value in assay [1] is given as “concentration-dependently inhibited”.
On to `COc1cc2c(c(OC)c1OC)-c1ccc(OC)c(=O)cc1[C@@H](NC(C)=O)CC2` [colchicine], for which the inhibition at 50 µM in assay [1] (Rattus norvegicus, PC-12, read-out: inhibition of veratridine (1 mM)-evoked tritium overflow) was 56%.
For `NC[C@H](O)c1ccc(O)c(O)c1` [Noradrenaline, noradrenaline base], the activity at 100 µM in assay [1] (Rattus norvegicus) turned out to be 93 ± 11.5%. For the same molecule, in assay [1] (setting [3]), the “effect on veratridine-induced … (in words)” value is on record as “failed to modify”.
Regarding `N=C(N)NN1Cc2c(Cl)ccc(Cl)c2C1` [Aganodine, aganodine], the “effect on veratridine-induced … (in words)” value in assay [1] (setting [3]) was “inhibited”. Also, in assay [1] (drug 100 μM, 15 mM KCl, 1 μM desipramine and 3 μM rauwolscine throughout, means ± SEM of 6-11 experiments), the “Veratridine (1 mM)-induced [^3H]noradrenaline release (% of controls without drug)” value is given as 32.3 ± 5.7%.
Regarding `COc1ccc(-c2sc3cc(OC)ccc3c2C(=O)c2ccc(C#N)cc2)cc1` [LY320135, [6-methoxy-2-(4-methoxyphenyl)benzo[b]thien-3-yl][4-cyanophenyl]methanone], the “interaction with the inhibition produced by 100 μM clonidine” value in assay [1] (10 μM LY320135) is reported as “counteracted”. The “evoked [^3H]noradrenaline release (% of evoked release in the respective control experiments)” value in assay [1] (10 μM LY320135 together with 10 μM 1-oleoyl-LPA, n=6) was 198.8%±39.9%. In assay [1], the “effect on veratridine-evoked [^3H]noradrenaline release, given alone” value is reported as “did not affect”.
`COC(=O)[C@H]1[C@H]2C[C@H]3c4[nH]c5ccccc5c4CCN3C[C@H]2CC[C@@H]1O` [Rauwolscine, Rauwolscine hydrochloride]: the “effect on the concentration-response curve of clonidine” value is reported as “did not substantially differ” in assay [1] (3 μM rauwolscine versus absence of rauwolscine) and “shifted to the right” in assay [1] (30 μM rauwolscine). In assay [1] (30 μM rauwolscine), the “interaction with the inhibitory effect of 10 μM 1-oleoyl-LPA” value is on record as “counteracted”. For the same molecule, the “effect on veratridine-induced [^3H]noradrenaline release, given alone” value in assay [1] (rauwolscine 3 μM alone, n=6) was “did not significantly modify”.
Regarding `CCCCCCCCCCCCCCCC(=O)OCC(O)COP(=O)(O)O` (stereo not shown) [1-palmitoyl-LPA], the figures for the “effect on evoked [^3H]noradrenaline release” value in assay [1] (10 μM 1-palmitoyl-LPA) and in assay [1] (up to 1 μM 1-palmitoyl-LPA) were “did not alter” and “concentration-dependently increased”, respectively.
For `Cc1c(C(=O)c2cccc3ccccc23)c2cccc3c2n1[C@@H](CN1CCOCC1)CO3` [WIN55,212-3], in assay [1] (setting [3]), the “effect on veratridine-induced … (in words)” value is on record as “did not”.
As to `CCCCC/C=C\C/C=C\C/C=C\C/C=C\CCCC(=O)NCCO` [Anandamide, anandamide], the “effect on veratridine-evoked [^3H]noradrenaline release” value in assay [1] (1 μM anandamide) is given as “did not affect”; in assay [1] (100 μM anandamide), “enhanced”.
For `CS(=O)(=O)O.Cc1c(C(=O)c2cccc3ccccc23)c2cccc3c2n1[C@H](CN1CCOCC1)CO3` [WIN55,212-2, R(+)-[2,3-dihydro-5-methyl-3-[(morpholinyl)methyl]pyrrolo[1,2,3-de]-1,4-benzoxazin-yl)(1-naphthalenyl)methanone mesylate], in assay [1], the “effect on veratridine-induced [^3H]noradrenaline release (concentration-response)” value is on record as “concentration-dependently inhibited”.
On to `COc1nc(C)nc(Cl)c1N=C1NCCN1` [Moxonidine, moxonidine], for which the activity at 100 µM in assay [1] (Rattus norvegicus) amounted to 81.6 ± 5.2%. In addition, the “effect on veratridine-induced [^3H]noradrenaline release” value in assay [1] (up to a concentration of 1000 μM, 3 μM rauwolscine present) is on record as “failed to modify”. In addition, in assay [2], the “agonist character at the edg2-receptor” value is recorded as “full agonists” and the “effect on [^35S]GTPγS-binding” value is on record as “provoke an increase”.
As to `CCCCCCCCCCCCC/C=C/[C@@H](O)[C@@H](N)COP(=O)(O)O` [S1P, sphingosine-1-phosphate], the “evoked [^3H]noradrenaline release (% of veratridine-evoked release in the respective control experiments)” value in assay [1] (10 μM S1P, n=6) is given as 101.7%±31.3%.
With `CCCCCCCC/C=C\CCCCCCCC(=O)OC[C@@H](O)COP(=O)(O)O` [1-oleoyl-LPA, 1-oleoyl-lysophosphatidic acid], the “effect on evoked [^3H]noradrenaline release” value in assay [1] (10 μM 1-oleoyl-LPA, cells pretreated with 100 μM clonidine for 72 h) is reported as “did not inhibit but tended to increase”. For the same molecule, the “effect on veratridine-evoked [^3H]noradrenaline release (concentration-response)” value in assay [1] was “concentration-dependently inhibited”.
In the case of `Cc1ccccc1NC(=N)Nc1ccccc1C` [DTG, 1,3-di(2-tolyl)guanidine], the activity at 100 µM in assay [1] (Rattus norvegicus) was 63.3 ± 7%. The “effect on veratridine-induced … (in words)” value in assay [1] (setting [3]) was “inhibited”.

By inhibition is commonly meant the percentage by which the read-out fell short of the control.
